# Measured values from PMC8645336, “Benchmarking a highly selective USP30 inhibitor for enhancement of mitophagy and pexophagy” (Life Science Alliance, 2021).
# Key:
# Assay in all cases: biochemical
# Design in all cases: Ubiquigent DUB profiler selectivity panel, remaining enzyme activity as % of control
# Details in all cases: read-out: % of control remaining
# AMSH-LP (+Zinc) = target: T1, AMSH-LP (+Zinc) (Homo sapiens, UniProt Q96FJ0)
# T1 construct: gene STAMBPL1; +Zinc
# T1 sequence (Q96FJ0 1-436): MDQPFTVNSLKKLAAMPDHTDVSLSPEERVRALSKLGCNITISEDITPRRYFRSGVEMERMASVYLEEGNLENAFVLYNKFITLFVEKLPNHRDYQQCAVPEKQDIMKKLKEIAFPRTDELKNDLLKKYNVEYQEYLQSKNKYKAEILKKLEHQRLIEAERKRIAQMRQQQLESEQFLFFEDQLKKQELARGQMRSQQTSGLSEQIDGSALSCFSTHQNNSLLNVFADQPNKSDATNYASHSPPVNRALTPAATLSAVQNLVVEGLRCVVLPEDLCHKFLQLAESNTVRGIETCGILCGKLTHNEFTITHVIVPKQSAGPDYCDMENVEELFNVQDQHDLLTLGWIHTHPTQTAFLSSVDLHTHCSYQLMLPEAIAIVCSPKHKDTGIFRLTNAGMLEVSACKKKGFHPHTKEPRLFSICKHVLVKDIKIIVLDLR
# How it was run: (§1)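 CMPD-39 selectivity was profiled at 1-100 μM across >40 DUBs. Cellular engagement used 2 h CMPD-39 pretreatment, then HA-Ub-PA probe for 10 min at 37°C, with USP30 band shift on immunoblot. TOMM20 ubiquitylation was blotted in YFP-PRKN hTERT-RPE1 cells after 1 h antimycin A/oligomycin A (1 μM each).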
# Cezanne = target: T2, Cezanne (Homo sapiens, UniProt Q6GQQ9)
# T2 construct: gene OTUD7B
# T2 sequence (Q6GQQ9 1-843): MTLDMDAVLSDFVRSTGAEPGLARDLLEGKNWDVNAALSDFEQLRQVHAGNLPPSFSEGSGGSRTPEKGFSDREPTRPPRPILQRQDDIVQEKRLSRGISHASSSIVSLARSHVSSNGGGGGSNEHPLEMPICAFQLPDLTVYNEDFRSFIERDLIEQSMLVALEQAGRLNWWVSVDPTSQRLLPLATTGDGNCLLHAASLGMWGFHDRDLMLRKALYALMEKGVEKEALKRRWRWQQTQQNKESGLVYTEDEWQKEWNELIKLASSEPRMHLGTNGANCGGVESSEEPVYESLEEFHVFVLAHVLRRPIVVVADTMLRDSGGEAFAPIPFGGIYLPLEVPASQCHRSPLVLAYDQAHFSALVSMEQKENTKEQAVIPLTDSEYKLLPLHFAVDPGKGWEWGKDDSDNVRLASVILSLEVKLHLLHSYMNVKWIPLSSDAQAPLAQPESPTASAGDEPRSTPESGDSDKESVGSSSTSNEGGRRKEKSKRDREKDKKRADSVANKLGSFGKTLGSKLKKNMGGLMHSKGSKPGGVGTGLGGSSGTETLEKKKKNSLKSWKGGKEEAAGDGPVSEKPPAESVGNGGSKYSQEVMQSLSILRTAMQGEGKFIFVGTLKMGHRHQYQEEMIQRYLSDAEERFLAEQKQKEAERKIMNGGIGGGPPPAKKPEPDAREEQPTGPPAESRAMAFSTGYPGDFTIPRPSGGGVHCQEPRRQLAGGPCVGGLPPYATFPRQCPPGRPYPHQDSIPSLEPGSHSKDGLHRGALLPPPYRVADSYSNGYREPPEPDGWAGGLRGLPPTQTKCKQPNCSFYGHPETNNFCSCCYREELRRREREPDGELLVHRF
# How it was run: as §1
# JOSD1 = JOSD1 (Homo sapiens, UniProt Q15040)
# How it was run: as §1
# OTU1 = target: T3, OTU1 (Homo sapiens, UniProt Q5VVQ6)
# T3 construct: gene YOD1
# T3 sequence (Q5VVQ6 1-348): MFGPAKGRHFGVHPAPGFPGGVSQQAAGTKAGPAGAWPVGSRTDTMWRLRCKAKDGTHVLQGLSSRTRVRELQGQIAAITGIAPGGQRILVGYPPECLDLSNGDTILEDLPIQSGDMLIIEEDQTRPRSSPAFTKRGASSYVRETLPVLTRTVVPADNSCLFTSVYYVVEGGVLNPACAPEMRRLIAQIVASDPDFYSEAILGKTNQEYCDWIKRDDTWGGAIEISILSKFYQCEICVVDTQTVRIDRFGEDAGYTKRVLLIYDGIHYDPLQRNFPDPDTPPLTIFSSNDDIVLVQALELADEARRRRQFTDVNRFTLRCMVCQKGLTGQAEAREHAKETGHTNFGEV
# How it was run: as §1
smiles,measurement,setting,value
"CC(C)(C)NS(=O)(=O)c1ccc(NC(=O)[C@H](Cc2ccccc2)NC(=O)c2ccc(F)cc2)cc1 [compound 39, CMPD-39]",remaining activity at 1 µM,AMSH-LP (+Zinc),106%
same,remaining activity at 10 µM,AMSH-LP (+Zinc),101%
same,remaining activity at 100 µM,AMSH-LP (+Zinc),97.8%
same,remaining activity at 1 µM,Cezanne,98.7%
same,remaining activity at 10 µM,Cezanne,98.8%
same,remaining activity at 100 µM,Cezanne,94.4%
same,remaining activity at 1 µM,JOSD1,98.1%
same,remaining activity at 10 µM,JOSD1,99.6%
same,remaining activity at 100 µM,JOSD1,103%
same,remaining activity at 1 µM,OTU1,105%
same,remaining activity at 10 µM,OTU1,97.8%
same,remaining activity at 100 µM,OTU1,101%
